Reference: US20060069110A1, “Substituted heterocyclic compounds and methods of use” (priority 2004, published 2006)

Each compound was assayed on THP1 cells (LPS induced TNF release) (assay: Lipopolysaccharide-Activated THP1 Cell TNF Production Assay). Settings: Homo sapiens, THP-1; THP1 cells, bacterial LPS, secreted TNF-α after 3 h at 37° C.; read-out: IC50 values in the THP1 cell assay (LPS induced TNF release).
Format: cell-based
Experimental: Lipopolysaccharide-Activated THP1 Cell TNF Production Assay
THP1 cells are resuspended in fresh THP1 media (RPMI 1640, 10% heat-inactivated FBS, 1×PGS, 1×NEAA, plus 30 μM βME) at a concentration of 1E6/mL. One hundred microliters of cells per well are plated in a polystyrene 96-well tissue culture. One microgram per mL of bacterial LPS is prepared in THP1 media and is transferred to the wells. Test compounds are dissolved in 100% DMSO and are serially diluted 3 fold in a polypropylene 96-well microtiter plate (drug plate). HI control and LO control wells contain only DMSO. One microliter of test compound from the drug plate followed by 10 μL of LPS are transferred to the cell plate. The treated cells are induced to synthesize and secrete TNF-α at 37° C. for 3 h. Forty microliters of conditioned media are transferred to a 96-well polypropylene plate containing 110 μL of ECL buffer (50 mM Tris-HCl pH 8.0, 100 mM NaCl, 0.05% Tween 20, 0.05% NaN3 and 1% FBS) supplemented with 0.44 nM MAB610 monoclonal Ab (R&D Systems), 0.34 nM ruthenylated AF210NA polyclonal Ab (R&D Systems) and 44 μg/mL sheep anti-mouse M280 Dynabeads (Dynal). After a 2 h incubation at RT with shaking, the reaction is read on the ECL M8 Instrument (IGEN Inc.). A low voltage is applied to the ruthenylated TNF-α immune complexes, which in the presence of TPA (the active component in Origlo), results in a cyclical redox reaction generating light at […]. The amount of secreted TNF-α in the presence of compound compared with that in the presence of DMSO vehicle alone (HI control) is calculated using the formula: % control (POC)=(cpd−average LO)/(average HI−average LO)*100. Data (consisting of POC and inhibitor concentration in μM) is fitted to a 4-parameter equation (y=A+((B−A)/(1+((×/C)ôD))), where A is the minimum y (POC) value, B is the maximum y (POC), C is the x (cpd concentration) at the point of inflection and D is the slope factor) using a Levenburg-Marquardt non-linear regression algorithm.

IC50 [µM]	SMILES
≤ 20	C[C@@H](Cc1cccc(CN)c1)Nc1nccc(N(C)c2nc(N)cc(-c3ccccc3)n2)n1 [Example 8, (S)-N^4-(4-Amino-6-phenylpyrimidin-2-yl)-N^2-(1-(3-(aminomethyl)phenyl)propan-2-yl)-N^4-methylpyrimidine-2,4-diamine]
≤ 20	CN(c1ccnc(NCCc2cccnc2)n1)c1ccnc(-c2ccsc2)n1 [Example 74, N^4-Methyl-N^2-(2-(pyridin-3-yl)ethyl)-N^4-(2-(thiophen-3-yl)pyrimidin-4-yl)-pyrimidine-2,4-diamine]
≤ 20	C[C@@H](Cc1cccc(CNC(=O)OC(C)(C)C)c1)Nc1nccc(N(C)c2cc(-c3ccccc3)c(=O)n(C)c2)n1 [(S)-tert-Butyl-3-(2-(4-(methyl(1-methyl-6-oxo-5-phenyl-1,6-dihydro-pyridin-3-yl)amino)pyrimidin-2-ylamino)propyl)benzylcarbamate]
≤ 20	CN(c1ccnc(NC2CCN(C(=O)OC(C)(C)C)CC2)n1)c1cc(-c2ccccc2)cc(=O)n1C [Example 162, tert-Butyl 4-(4-(methyl(1-2-yl)amino)pyrimidin-2-ylamino)piperidine-1-carboxylate]
≤ 20	CC(Cc1cccc(CO)c1)Nc1nccc(N(C)c2cc(N)nc(-c3ccccc3)n2)n1 (stereo not drawn) [Example 119, (3-(2-(4-((6-Amino-2-phenylpyrimidin-4-yl)(methyl)amino)pyrimidin-2-ylamino) -propyl)phenyl)methanol]
≤ 20	C[C@@H](Cc1cccc(CN)c1)Nc1nccc(N(C)c2nc(-c3ccccc3)ncc2F)n1 [Example 66, (S)-N^2-(1-(3-(Aminomethyl)phenyl)propan-2-yl)-N^4-(5-fluoro-2-phenylpyrimidin-4-yl)-N^4-methylpyrimidine-2,4-diamine]
≤ 20	CNC(=O)c1cnc(-c2ccccc2)nc1Nc1ccnc(NCCc2ccccn2)n1 [Example 99, N-Methyl-2-phenyl-4-(2-(2-(pyridin-2-yl)ethylamino)pyrimidin-4-ylamino)-pyrimidine-5-carboxamide]
≤ 20	C[C@H](Nc1nccc(N(C)c2ccnc(-c3ccccc3)n2)n1)c1cccc(CCN)c1 [Example 19, (S)-N^2-(1-(3-(2-Aminoethyl)phenyl)ethyl)-N^4-methyl-N^4-(2-phenylpyrimidin-4-yl)pyrimidine-2,4-diamine]
≤ 20	CN(c1cncc(-c2ccccc2)n1)c1ccnc(N[C@H]2CC[C@H](N)CC2)n1 [Example 124, N^2-((1r, 4r)-4-Aminocyclohexyl)-N^4-methyl-N^4-(6-phenylpyrazine-2-yl)pyrimidine-2,4-diamine]
≤ 20	CN(c1ccnc(N[C@H]2CC[C@H](N)CC2)n1)c1ccnc(-c2ccccc2)n1 [Example 13, N^2-((1r,4r)-4-Aminocyclohexyl)-N^4-methyl-N^4-(2-phenylpyrimidin-4-yl)pyrimidine-2,4-diamine]
≤ 20	CN(c1ccnc(NCC(c2cccnc2)N2CCOCC2)n1)c1ccnc(-c2ccccc2)n1 (stereo not drawn) [Example 108, N^4-Methyl-N^2-(2-morpholino-2-(pyridin-3-yl)ethyl)-N^4-(2-phenylpyrimidin-4-yl)pyrimidine-2,4-diamine]
≤ 20	CN(c1ccnc(NCCc2ccccc2Cl)n1)c1ccnc(-c2ccccc2)n1 [Example 14, N^2-(2-Chlorophenethyl)-N^4-methyl-N^4-(2-phenylpyrimidin-4-yl)pyrimidine-2,4-diamine]
≤ 20	Cc1ccccc1-c1nccc(N(C)c2ccnc(NCCc3cccnc3)n2)n1 [Example 105, N^4-Methyl-N^2-(2-(pyridin-3-yl)ethyl)-N^4-(2-o-tolylpyrimidin-4-yl)pyrimidine-2,4-diamine]
≤ 20	CN(c1cccc(-c2ccc(Cl)cc2)n1)c1ccnc(NCCc2ccccc2)n1 [Example 134, N^4-(6-(4-Chlorophenyl)pyridin-2-yl)-N^4-methyl-N^2-phenethylpyrimidine-2,4-diamine]
≤ 20	CN(c1ccnc(NCC(O)c2ccccn2)n1)c1ccnc(-c2ccccc2)n1 (stereo not drawn) [Example 113]
≤ 20	CN(c1ccnc(N[C@H]2CC[C@H](N)CC2)n1)c1ccnc(-c2ccccc2F)n1 [Example 93, N^2-(4-Aminocyclohexyl)-N^4-(2-(2-fluorophenyl)pyrimidin-4-yl)-N^4-methyl-pyrimidine-2,4-diamine]
≤ 20	CNC(=O)[C@@H](Cc1ccccc1)Nc1nccc(N(C)c2ccnc(-c3ccccc3)n2)n1 [Example 46, (R)-N-Methyl-2-(4-(methyl(2-phenylpyrimidin-4-yl)amino)pyrimidin-2-ylamino)-3-phenylpropanamide]

IC50 [µM]	SMILES
≤ 20	CN(c1ccnc(-c2ccccc2)n1)c1nc(NCCc2cccnc2)ncc1F [Example 70, 5-Fluoro-N^4-methyl-N^4-(2-phenylpyrimidin-4-yl)-N^2-(2-(pyridin-3-yl)ethyl)-pyrimidine-2,4-diamine]
≤ 20	C[C@@H](Cc1cccc(CN)c1)Nc1nccc(N(C)c2cncc(-c3ccccc3)n2)n1 [Example 122, (S)-N^2-(1-(3-(Aminomethyl)phenyl)propan-2-yl)-N^4-methyl-N^4-(6-phenylpyrazin-2-yl)pyrimidine-2,4-diamine]
≤ 20	C[C@H](N)C(=O)N1CCC(Nc2nccc(N(C)c3ccnc(-c4ccccc4)n3)n2)CC1 [Example 23]
≤ 20	CC(Cc1cccc(CN)c1)Nc1nccc(N(C)c2cccc(-c3cccc(F)c3)n2)n1 (stereo not drawn) [Example 157, N^2-(1-(3-(Aminomethyl)phenyl)propan-2-yl)-N^4-(6-(3-fluorophenyl)pyridin-2-yl)-N^4-methylpyrimidine-2,4-diamine]
≤ 20	CN(c1ccnc(NC[C@H](O)c2ccccc2)n1)c1ccnc(-c2ccccc2)n1 [Example 110, (R)-2-(4-(Methyl(2-phenylpyrimidin-4-yl)amino)pyrimidin-2-ylamino)-1-phenyl-ethanol]
≤ 20	CN(c1ccnc(NCCc2ccccn2)n1)c1cc(O)nc(-c2ccccc2)n1 [Example 120, 6-(Methyl(2-(2-(pyridin-2-yl)ethylamino)pyrimidin-4-yl)amino)-2-phenylpyrimidin-4-ol]
≤ 20	CN(c1ccnc(N[C@H](Cc2ccccc2)C(=O)O)n1)c1ccnc(-c2ccccc2)n1 [Example 45, (R)-2-(4-(Methyl(2-phenylpyrimidin-4-yl)amino)pyrimidin-2-ylamino)-3-phenyl-propanoic acid]
≤ 20	CN(c1c[nH]c(=O)c(-c2ccccc2)c1)c1ccnc(NCCc2ccccc2)n1 [Example 166, 5-(Methyl(2-(phenethylamino)pyrimidin-4-yl)amino)-3-phenylpyridin-2(1H)-one]
≤ 20	CN(c1nc(NCCc2cccnc2)ncc1F)c1nc(-c2ccccc2)ncc1F [Example 69, 5-Fluoro-N^4-(5-fluoro-2-phenylpyrimidin-4-yl)-N^4-methyl-N^2-(2-(pyridin-3-yl)-ethyl)pyrimidine-2,4-diamine]
≤ 20	CN(c1cccc(-c2ccc(F)c(F)c2)n1)c1ccnc(NCCc2ccccc2)n1 [Example 144, N^4-(6-(3,4-Difluorophenyl)pyridin-2-yl)-N^4-methyl-N^2-phenethylpyrimidine-2,4-diamine]
≤ 20	CN(c1ccnc(NC[C@H](N)c2ccccc2)n1)c1ccnc(-c2ccccc2)n1 [Example 112]
≤ 20	CC(Cc1cccc(CN)c1)Nc1nccc(N(C)c2c[nH]c(=O)c(-c3ccccc3)c2)n1 (stereo not drawn) [Example 171, 5-((2-(1-(3-(Aminomethyl)phenyl)propan-2-ylamino)pyrimidin-4-yl)(methyl)-amino)-3-phenylpyridin-2(1H)-one]
≤ 20	CN(c1ccnc(NCCc2cccnc2)n1)c1ccnc(-c2ccc(F)cc2F)n1 [Example 77, N^4-(2-(2,4-Difluorophenyl)pyrimidin-4-yl)-N^4-methyl-N^2-(2-(pyridin-3-yl)ethyl)-pyrimidine-2,4-diamine]
≤ 20	CN(c1ccnc(NCCN2CCOCC2)n1)c1ccnc(-c2ccccc2)n1 [Example 96, N^4-Methyl-N^2-(2-morpholinoethyl)-N^4-(2-phenylpyrimidin-4-yl)pyrimidine-2,4-diamine]
≤ 20	NC(=O)c1cnc(-c2ccccc2)nc1Nc1ccnc(NCCc2cccnc2)n1 [Example 65, 2-Phenyl-4-(2-(2-(pyridin-3-yl)ethylamino)pyrimidin-4-ylamino)pyrimidine-5-carboxamide]
≤ 20	CN(c1ccnc(NCCc2cccnc2)n1)c1nc(-c2ccccc2)ncc1Br [Example 63, N^4-(5-Bromo-2-phenylpyrimidin-4-yl)-N^4-methyl-N^2-(2-(pyridin-3-yl)ethyl)-pyrimidine-2,4-diamine]
